Results published in US10457700B2, “Platinum prodrugs and methods of making and using thereof” (UNIVERSITY OF GEORGIA RESEARCH FOUNDATION, INC., priority 2015, dated 2019).

Columns and labels:
PC3 cells = experiment: MTT cytotoxicity assay in PC3 cells; type: cell-based, human
Experimental: (§1) Human prostate cancer cell line PC3 and DU145 were procured from the American type culture collection (ATCC). Ovarian cancer A2780 cells were obtained from Prof, Robert Brown, Imperial College London. […] Cells were passed every 3 to 4 days and restarted from frozen stocks upon reaching 20 passages.
(§2) PC3, A2780, or A2780/CP70 cells (2000 cells/well/100 μL) were seeded on a 96-well plate in 100 μL of desired medium and incubated for 24 h. After 24 h, media was removed and fresh media was added. The cells were treated with different constructs at varying concentrations and incubated for 72 h at 37° C. in 5% CO2. The cells were then treated with 20 μL of MTT (5 mg/mL in PBS) for 5 h. The medium was removed, the cells were lysed with 100 μL of DMSO, and the absorbance of the purple formazan was recorded at 550 nm using a Bio-Tek Synergy HT microplate reader. The background absorbance for each well was measured at 800 nm. Each well was performed in triplicate. […] Cells were grown for 7 days in high glucose medium prior to the MTT experiment. Cytotoxicity was expressed as mean percentage increase relative to the unexposed control±SD. Control values were set at 0% cytotoxicity or 100% cell viability.

A2780/CP70 cells [1] = experiment: MTT cytotoxicity assay in cisplatin resistant A2780/CP70 cells; type: cell-based, human; settings: 72 h
Experimental: as §1, §2

[2] = system: intracellular GSH in A2780/CP70 cells; experiment: Cellular GSH assay with ThiolTracker Violet, flow cytometry; type: cell-based, human; settings: 10 μM, 12 h
Experimental: The ability of Platin-B to interact with intracellular GSH in A2780/CP70 cells was investigated using the ThiolTracker Violet GSH detection reagent. Specifically, A2780/CP70 cells (4×10^5 cells/well/2 mL) were plated onto 6 well culture plates and allowed to grow overnight. […] After 12 h, both the attached and detached cells were collected by trypsinization, washed with PBS, and resuspended in Dulbecco's PBS (D-PBS) containing Ca^2+ and Mg^2+, glucose, and sodium pyruvate. The cells were then incubated with 10 μM (final concentration) ThiolTracker Violet for 30 min at 37° C. The cells were then washed with D-PBS, resuspended in buffer, and immediately analyzed on a flow cytometer with 405 nm excitation and 525 nm emission filters. The ThiolTracker Violet stain is a highly thiol reactive fluorescent probe and can be utilized in effective detection of intracellular GSH by quantitative detection modalities such as flow cytometry.

[3] = system: mitochondrial respiration of A2780/CP70 cells; experiment: MitoStress test, Seahorse XF24 (OCR); type: cell-based, human; settings: 1 μM, 24 h
Description: Prior to the assay, XF sensor cartridges were hydrated. […] The parameters calculated included: basal respiration (baseline respiration minus antimycin-A post injection respiration), ATP turnover (baseline respiration minus oligomycin post injection respiration), maximal respiratory capacity (FCCP stimulated respiration minus antimycin-A post injection respiration) and reserve respiratory capacity (FCCP stimulated respiration minus baseline respiration).

[4] = Cyclic voltammetry, Pt(IV)/Pt(II) reduction potential; type: physicochemical; settings: 0.1 M KCl
Experimental: Redox potential of platinum (IV) prodrugs play important roles in regulating efficacy. The disclosed Pt(IV) prodrugs can be activated selectively by intracellular reduction, preferably at the tumor sites to reduce side effects. Redox potential is a measure of the ability of Pt(IV) compounds to form the active platinum (II) species. Electrochemical measurements on Platin-B were carried out in dimethylformamide (DMF)-phosphate buffered saline (PBS) at pH 6.0 and 7.4. Specifically, a conventional three-electrode set-up comprising a glassy carbon working electrode, platinum wire auxiliary electrode, and Ag/AgCl (3M KCl) reference electrode was used for electrochemical measurements. The electrochemical data were uncorrected for junction potentials. KCl was used as a supporting electrolyte. Platin-B (2 mM) solutions were prepared in 40% DMF phosphate buffered saline (PBS) of pH 6.0 and 7.4 with 0.1 M KCl and voltammograms were recorded at different scan rates.

A2780/CP70 cells [5] = experiment: Apoptosis detection by Annexin V-PI assay; type: cell-based, human; settings: 50 μM, 12 h
Experimental: Enhanced activity of Platin-B in A2780/CP70 cells was further confirmed by Annexin-V-propidium iodide (PI) apoptosis-necrosis assay. […] The cells were trypsinized, repeatedly washed collecting the supernatants, and centrifuged at 754×g for 3 min, and the supernatants were collected. Cell density was determined and cells were resuspended in 1× annexinV-binding buffer to 1×10^6 cells/mL preparing a sufficient volume to have 100 μL per assay. To 100 μL of cell suspension, 5 μL ALEXA FLUOR™ 488 annexin V and 1 μL of 100 μg/mL PI working solution were added, incubated for 15 min at room temperature. After the incubation period, 400 μL of 1× annexin-binding buffer was added to each sample, samples were gently mixed keeping the samples on ice, and the samples were analyzed on the flow cytometer immediately.

GST enzyme = experiment: GST enzymatic substrate competitive assay / cellular GST activity assay; type: biochemical; settings: 50 or 100 μM, in buffer or A2780/CP70 cell lysates
Experimental: GST enzyme modulates GSH to attack on labile electrophilic halide containing molecules in cellular detoxification processes. […] GST enzymatic activity was evaluated by following the formation of GSH and 1-chloro-2,4-dinitrobenzene (CDNB) adduct.
This assay was performed according to the instruction given by the manufacturer (GST activity assay kit ab65326). AU the standard solutions were prepared as per the instruction. Samples were prepared in a total 50 μL volume with GST assay buffer, including a negative control with 50 μL of GST assay buffer only and a positive control (10 μL of GST positive control diluted to 1:50) and 40 μL of GST assay buffer only. Sample wells contained 10 μL of GST enzyme diluted to 1:50 and remaining of GST assay buffer. To each well, 5 μL GSH was added. 50 μL of substrate mix containing GST substrate CDNB (5 μL) was prepared. […] Then, 50 μL of substrate mix was added to each well including controls. The plate was stirred carefully to initiate the reaction and absorbance values were recorded once every minute at 340 nm using a plate reader to obtain 20 data points. GST activity was calculated through the kinetic plot obtained from the time (min) vs. optical density (OD340 nm) using the formula GST activity=ΔA340 min^−1/0.002777 μM·D/A, where D is the enzyme sample dilution factor and A is the enzyme sample volume added to each well. […]

[6] = system: citrate synthase activity in A2780/CP70 cells; experiment: Citrate synthase activity assay; type: cell-based, human; settings: 1 μM, 24 h
Experimental: Citrate synthase activity assay was performed by following the instruction given in MitoCheck Citrate Synthase Activity assay kit (Cayman item no. 701040). Briefly, A2780/CP70 cells were seeded at a density of 1.2×10^6 cells/7 mL in 25 cm^2 cell culture flask and grown overnight. […] The cells were then scraped in presence of fresh media and centrifuged to obtain the cell pellet. The resultant pellet was washed 2 times with 1×PBS and solubilized in 200 μL extraction buffer. This cell suspension was incubated on ice for 20 min followed by centrifugation at 16000×g for 20 minutes at 4° C. The supernatant was collected and used for measuring the citrate synthase activity after 1:200 dilutions. Protein concentration in the samples was measured using BCA assay. […] Finally 20 μL of the substrate oxaloacetate from tube B was added to each well and absorbance was recorded immediately at 412 nm (50 seconds interval for 30 min at room temperature). The citrate synthase activity was calculated through the kinetic plot obtained from the time (min) vs. optical density (OD=412 nm) using the formula: CS Activity=(ΔA412 min−1/5.712 mM−×0.1 mL/0.03 mL)×sample dilution nmoles/min/mL. […]

Compound	IC50 (PC3 cells; Homo sapiens, PC-3, 72 h) [µM]	IC50 (A2780/CP70 cells [1]; Homo sapiens) [µM]	IC50 (PC3 cells; 72 h) [µM]	IC50 (A2780/CP70 cells [1]) [µM]	effect on intracellular GSH levels [2]	effect on mitochondrial respiration (OCR) [3]	Pt(IV)/Pt(II) couple reduction potential ([4]; pH 6.0, 40% DMF-PBS)	Pt(IV)/Pt(II) couple reduction potential ([4]; pH 7.4, 40% DMF-PBS)	sensitivity of resistant cells (Annexin V-PI apoptosis-necrosis) (A2780/CP70 cells [5])	GSH conjugation catalyzed by GST (GST enzyme)	mitochondrial content by citrate synthase activity [6]
O=C(O)CCCCCBr [6-BH, 6-bromohexanoic acid]	> 100	> 100	–	–	–	–	–	–	–	–	–
N.N.[Cl][Pt][Cl] [Cisplatin, cis-diamminedichloridoplatinum(II), reference compound]	–	–	14.4 ± 1.6	14.7 ± 0.9	minimal effect	did not demonstrate such activities	–	–	–	–	–
[NH2][Pt]([NH2])([Cl])([Cl])([O]C(=O)CCCCCBr)[O]C(=O)CCCCCBr [Platin-B]	–	–	–	–	enhanced ability to reduce GSH levels	inhibited mitochondrial respiration significantly	~−0.187 V vs. normal hydrogen electrode (NHE)	~−0.217 V vs. normal hydrogen electrode (NHE)	high degree of sensitivity	more efficient	lower mitochondrial content
